According to US20210177795A1 (priority 2017, published 2021):
Peptide text beside a SMILES is read from it. * marks the point of attachment. X1 = CCCCCCCCCCCCCCCC(=O)OCC(C*)OC(=O)CCCCCCCCCCCCCCC

Settings: mouse, in vivo

Row | SMILES | highest weight loss | weight loss relative to baseline
1 | CCCCCCCCCCCCCCCC(=O)OCC(CSC[C@H](N)C(=O)N[C@@H](CO)C(=O)N[C@@H](CO)C(=O)NCCOCCOCCOCCOCCOCCOCCOCCOCCOCCOCCOCCOCCC(=O)NCC(N)=O)OC(=O)CCCCCCCCCCCCCCC (some centres unmarked) [INNA-003, PEG-S—S-Pam2Cys] | 4.67%±2.12% | 
2 | CCCCCCCCCCCCCCCC(=O)OCC(CSC[C@H](N)C(=O)N[C@@H](CO)C(=O)N[C@@H](CCCCN)C(=O)N[C@@H](CCCCN)C(=O)N[C@@H](CCCCN)C(=O)N[C@@H](CCCCN)C(=O)O)OC(=O)CCCCCCCCCCCCCCC (some centres unmarked) [Pam2Cys-SK4, dipalmitoyl-S-glyceryl cysteine-serine-(lysine)4, reference compound] (H-C(X1)SKKKK-OH) |  | little or no weight loss
